Laboratory results as given in patent publication US20250163056A1, “NONMUSCLE MYOSIN II INHIBITORS” (The University of Florida Research Foundation, Inc., priority 2018, published 2025).

Columns and labels:
Bovine cardiac myosin = Bovine cardiac myosin (Bos taurus (Bovine), UniProt Q9BE39); experiment: Cardiac muscle myosin II actin-activated ATPase assay (NADH-coupled); assay type: biochemical; design: key to Ratio CMMII:NMII Ki/EC50: NMII-sel: no Ki value for cardiac myosin II could be determined; the compounds had no detectable inhibitory properties versus the cardiac myosin II; settings: for Ki: 300 nM cardiac myosin, 10 μM actin, 25° C., read-out: CMMII KI; for Ratio CMMII:NMII Ki/EC50: cardiac myosin II Ki over nonmuscle myosin II EC50
Outline: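 NADH-coupled (PK/LDH) assay at 25° C: 300 nM bovine cardiac myosin, 10 μM rabbit F-actin, 1 mM ATP, 1 mM PEP, 220 μM NADH, MOPS pH 7.0, 0.5% DMSO. NADH fluorescence was followed for 30 min; Ki values came from 16-point triplicate data (top 50 uM) fitted to a quadratic one-to-one binding model.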

Rabbit skeletal myosin = experiment: Skeletal muscle myosin II actin-activated ATPase assay; assay type: biochemical; settings: 20 nM skeletal muscle myosin II; read-out: SKMMII KI
Outline: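 NADH-coupled (PK/LDH) actin-activated ATPase at 25 °C with 20 nM rabbit skeletal myosin II, 10 μM F-actin, 1 mM ATP, 1 mM PEP, 220 μM NADH in MOPS pH 7.0, MgCl2, EGTA, BSA, DTT, 0.5% DMSO. NADH fluorescence followed 30 min; inhibitory constants from 16-point triplicate curves (top 50 uM), quadratic one-to-one fit.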

[1] = Photostability, percentage remaining undegraded under illumination or in the dark; settings: for Photostability 4 hours: percentage remaining undegraded after 4 hours illumination; for Photostability 24 hours: percentage remaining undegraded after 24 hours illumination; for Photostability Dark (24 h): percentage remaining undegraded in the dark

Bovine cardiac myosin, sequence (Q9BE39 whole entry): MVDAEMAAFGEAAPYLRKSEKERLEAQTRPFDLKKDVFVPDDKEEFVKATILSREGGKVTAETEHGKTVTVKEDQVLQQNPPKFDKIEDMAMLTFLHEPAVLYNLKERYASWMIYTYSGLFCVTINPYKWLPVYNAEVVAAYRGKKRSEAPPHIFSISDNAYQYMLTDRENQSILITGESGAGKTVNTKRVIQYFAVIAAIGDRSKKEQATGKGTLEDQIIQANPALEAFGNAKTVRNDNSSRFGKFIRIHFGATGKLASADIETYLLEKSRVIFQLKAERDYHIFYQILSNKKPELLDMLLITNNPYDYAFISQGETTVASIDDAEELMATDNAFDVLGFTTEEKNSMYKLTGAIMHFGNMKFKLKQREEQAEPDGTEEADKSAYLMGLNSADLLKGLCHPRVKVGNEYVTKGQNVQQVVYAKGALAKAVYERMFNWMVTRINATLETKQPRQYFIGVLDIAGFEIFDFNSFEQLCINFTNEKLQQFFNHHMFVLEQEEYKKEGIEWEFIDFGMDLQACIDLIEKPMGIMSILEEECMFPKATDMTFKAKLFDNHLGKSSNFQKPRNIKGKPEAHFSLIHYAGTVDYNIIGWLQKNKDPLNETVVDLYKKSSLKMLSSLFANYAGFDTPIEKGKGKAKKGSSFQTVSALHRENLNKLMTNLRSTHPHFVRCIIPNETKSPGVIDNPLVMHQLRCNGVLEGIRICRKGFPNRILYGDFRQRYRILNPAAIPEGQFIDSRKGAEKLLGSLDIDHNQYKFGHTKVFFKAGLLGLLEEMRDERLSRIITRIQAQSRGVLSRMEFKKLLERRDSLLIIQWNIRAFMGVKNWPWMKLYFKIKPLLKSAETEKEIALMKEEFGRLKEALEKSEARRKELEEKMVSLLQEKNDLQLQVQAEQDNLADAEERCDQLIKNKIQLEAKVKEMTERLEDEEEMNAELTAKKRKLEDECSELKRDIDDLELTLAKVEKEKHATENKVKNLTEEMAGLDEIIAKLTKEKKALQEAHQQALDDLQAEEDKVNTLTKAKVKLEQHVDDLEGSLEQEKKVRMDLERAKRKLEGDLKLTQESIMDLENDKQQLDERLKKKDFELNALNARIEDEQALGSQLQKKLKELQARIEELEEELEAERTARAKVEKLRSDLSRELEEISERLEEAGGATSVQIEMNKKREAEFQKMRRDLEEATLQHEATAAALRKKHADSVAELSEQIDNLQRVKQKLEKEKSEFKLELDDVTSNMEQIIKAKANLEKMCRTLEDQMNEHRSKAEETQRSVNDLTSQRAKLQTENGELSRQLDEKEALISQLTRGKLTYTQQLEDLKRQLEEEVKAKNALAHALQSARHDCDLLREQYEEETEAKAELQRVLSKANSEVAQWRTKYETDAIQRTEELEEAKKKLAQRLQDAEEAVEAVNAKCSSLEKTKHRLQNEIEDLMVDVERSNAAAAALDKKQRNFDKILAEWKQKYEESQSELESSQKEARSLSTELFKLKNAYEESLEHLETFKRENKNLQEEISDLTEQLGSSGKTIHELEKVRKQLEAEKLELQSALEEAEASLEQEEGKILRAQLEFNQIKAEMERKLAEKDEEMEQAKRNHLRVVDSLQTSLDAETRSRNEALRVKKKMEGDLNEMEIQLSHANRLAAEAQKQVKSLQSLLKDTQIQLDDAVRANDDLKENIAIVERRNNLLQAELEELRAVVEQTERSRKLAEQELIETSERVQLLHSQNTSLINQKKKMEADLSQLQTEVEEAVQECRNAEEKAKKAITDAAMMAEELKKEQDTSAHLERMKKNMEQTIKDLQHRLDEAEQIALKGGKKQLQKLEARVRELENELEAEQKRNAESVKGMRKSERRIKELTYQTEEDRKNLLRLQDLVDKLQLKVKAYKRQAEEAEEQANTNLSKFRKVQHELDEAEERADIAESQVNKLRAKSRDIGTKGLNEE
Bovine cardiac myosin, sequence (P85100 whole entry partner): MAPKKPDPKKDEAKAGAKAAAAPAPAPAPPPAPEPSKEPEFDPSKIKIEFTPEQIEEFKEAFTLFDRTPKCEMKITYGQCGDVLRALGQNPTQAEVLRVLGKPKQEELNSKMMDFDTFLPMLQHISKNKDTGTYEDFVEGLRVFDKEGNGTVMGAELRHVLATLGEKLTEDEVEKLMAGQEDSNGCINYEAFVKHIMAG
Bovine cardiac myosin, sequence (Q3SZE5 whole entry partner): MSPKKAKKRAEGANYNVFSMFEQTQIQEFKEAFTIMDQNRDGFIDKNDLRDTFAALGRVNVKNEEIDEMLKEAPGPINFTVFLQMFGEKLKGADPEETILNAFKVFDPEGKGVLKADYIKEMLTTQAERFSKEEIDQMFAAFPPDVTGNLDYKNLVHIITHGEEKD

SMILES | Ki (Bovine cardiac myosin) | Ratio CMMII:NMII Ki/EC50 (Bovine cardiac myosin) | Ki (Rabbit skeletal myosin) | Photostability 4 hours [1] | Photostability 24 hours [1] | Photostability Dark (24 h) [1]
Cc1cc2cc(N3CC[C@@]4(O)C(=O)c5cc(C)c(C)cc5N=C34)ccc2o1 [BPN-0026852] | 25 µM | 9.6 | 5.6 µM | 62.4% | 3.8% | 85.1%
Cc1ccc(N2CC[C@@]3(O)C(=O)c4cc(C)c(C(F)(F)F)cc4N=C23)cc1 [BPN-0026819] | 50 µM | 27.8 | 1.7 µM | 96.6% | 84.8% | 97.3%
Cc1cc2c(cc1C)C(=O)[C@]1(O)CCN(c3ccc(I)cc3)C1=N2 [BPN-0027109] | 11 µM | 21.2 | 0.27 µM | 82.5% | 29.4% | >99%
COc1ccc2cc(N3CC[C@@]4(O)C(=O)c5cc(C)c(C)cc5N=C34)ccc2n1 [BPN-0027250] | – | NMII-sel | 1 µM | 45.8% | 2.7% | 70.1%
COc1cccc(N2CC[C@@]3(O)C(=O)c4cc(C)ccc4N=C23)c1 [BPN-0025044] | 28 µM | 5.4 | 7 µM | 90.3% | 12.1% | >99%
O=C1c2cc(C(F)(F)F)ccc2N=C2N(c3ccc4ccoc4c3)CC[C@@]12O [BPN-0026495] | – | NMII-sel | 20 µM | 80.9% | 15.9% | 93.4%
Cc1cc2c(cc1C(F)(F)F)N=C1N(c3ccc(Cl)cc3)CC[C@@]1(O)C2=O [BPN-0027080] | – | NMII-sel | 4.8 µM | 98.1% | 88.1% | >99%
Cc1cc(N2CC[C@@]3(O)C(=O)c4cc(C)c(C)cc4N=C23)ccn1 [BPN-0028616] | 200 µM | 13.3 | 11 µM | 93.2% | 71.0% | 89.4%
N#Cc1ccc(N2CC[C@@]3(O)C(=O)c4cc(C(F)(F)F)ccc4N=C23)cc1 [BPN-0026608] | 50 µM | 11.6 | 1.7 µM | 86.7% | <1% | 97.5%
Cc1ccc2c(c1)C(=O)[C@]1(O)CCN(c3ccc4sc(C)nc4c3)C1=N2 [BPN-0027411] | 51 µM | 8.1 | 1.1 µM | 81.8% | 6.4% | 98.8%
COc1cccc(N2CC[C@@]3(O)C(=O)c4cc(F)c(C)cc4N=C23)c1 [BPN-0026618] | 18 µM | 3.8 | 5.9 µM | 92.3% | 17.2% | 96.6%
Cc1ccc2c(c1)C(=O)[C@]1(O)CCN(c3cccc(Br)c3)C1=N2 [BPN-0025240] | 400 µM | 39.2 | 35 µM | 93.0% | 28.6% | 94.7%
CCc1nc2cc(N3CC[C@@]4(O)C(=O)c5cc(C)c(C)cc5N=C34)ccc2s1 [BPN-0028918] | 11 µM | 5.5 | 0.64 µM | 54.2% | 7.8% | >99%
Cc1cc2c(s1)N=C1N(c3cccc(Br)c3)CC[C@@]1(O)C2=O [BPN-0026624] | 210 µM | 14.0 | 24 µM | 90.5% | 88.2% | 92.2%
Cc1ccc2cc(N3CC[C@@]4(O)C(=O)c5cc(C)c(C)cc5N=C34)ccc2n1 [BPN-0027490] | – | NMII-sel | 0.41 µM | 80.8% | 6.8% | 98.5%
Cc1cc2c(cc1C)C(=O)[C@]1(O)CCN(c3ccc4ncncc4c3)C1=N2 [BPN-0027228] | 300 µM | 10.7 | 4.6 µM | >99% | 89.1% | >99%

SMILES | Ki (Bovine cardiac myosin) | Ratio CMMII:NMII Ki/EC50 (Bovine cardiac myosin) | Ki (Rabbit skeletal myosin) | Photostability 4 hours [1] | Photostability 24 hours [1] | Photostability Dark (24 h) [1]
Cc1cc2c(cc1C)C(=O)[C@]1(O)CCN(c3cnc(CO)c(Cl)c3)C1=N2 [BPN-0028649] | 30 µM | 7.1 | 2.7 µM | 96.7% | 73.1% | 98.4%
O=C1c2cc(Cl)ccc2N=C2N(c3ccc(Cl)cc3)CC[C@@]12O [BPN-0026640] | 8 µM | 4.0 | 0.53 µM | 71.1% | 17.8% | 96.8%
Cc1cc2c(s1)C(=O)[C@]1(O)CCN(c3ccc(C)c(Cl)c3)C1=N2 [BPN-0026882] | 21 µM | 3.6 | 4.5 µM | 98.8% | 96.8% | >99%
CCC1=CC2N=C3N(c4ccc5ncccc5c4)CC[C@@]3(O)C(=O)C2S1 (stereo partly shown) [BPN-0028625] | 300 µM | 56.6 | 8.9 µM | 84.4% | 84.6% | 81.8%
Cc1cc2c(cc1C)C(=O)[C@]1(O)CCN(c3ccc4c(c3)NCCO4)C1=N2 [BPN-0028790] | 2.4 µM | 3.8 | 1 µM | 92.7% | 64% | 95.3%
Cc1cc2c(cc1C)C(=O)[C@]1(O)CCN(c3ccc4c(c3)NCCC4)C1=N2 [BPN-0028925] | 5.8 µM | 7.3 | 0.7 µM | 85.9% | 24.7% | 93.7%
Cc1cc2c(cc1C)C(=O)[C@]1(O)CCN(c3ccc4nc(C#N)ccc4c3)C1=N2 [BPN-0027492] | – | NMII-sel | 2.6 µM | 95.1% | 66.9% | >99%
Cc1ccc(N2CC[C@@]3(O)C(=O)c4cc(F)c(C)cc4N=C23)cc1C [BPN-0026607] | – | NMII-sel | 5.8 µM | 98.5% | 84.7% | 98.1%
Cc1cc2c(cc1C)C(=O)[C@]1(O)CCN(c3ccc4nc(N)ccc4c3)C1=N2 [BPN-0028899] | – | NMII-sel | 3.8 µM | 70.8% | 29.7% | 97.8%
O=C1c2cc(Cl)ccc2N=C2N(c3ccc4ccsc4c3)CC[C@@]12O [BPN-0026545] | – | NMII-sel | 12 µM | 89.4% | 5.1% | >99%
COc1ccc(N2CC[C@@]3(O)C(=O)c4cc(C)c(C)cc4N=C23)cn1 [BPN-0028648] | 4.4 µM | 3.4 | 0.26 µM | 52.5% | <1% | 98.4%
Cc1cccc(N2CC[C@@]3(O)C(=O)c4cc(F)c(C)cc4N=C23)c1 [BPN-0026620] | – | NMII-sel | 16 µM | 94.1% | 27.8% | 92.8%
Cc1cc2c(cc1C)C(=O)[C@]1(O)CCN(c3ccc(C#N)c(C)c3)C1=N2 [BPN-0026661] | 53 µM | 22.1 | 2.2 µM | 95.5% | 65.4% | 98.2%
Cc1cc2c(cc1C)C(=O)[C@]1(O)CCN(c3ccc(Cl)cc3)C1=N2 [BPN-0026662] | 6 µM | 5.5 | 0.19 µM | 85.4% | 7.5% | >99%
Cc1ccc2c(c1)C(=O)[C@]1(O)CCN(c3ccc(C#N)c(Cl)c3)C1=N2 [BPN-0026394] | – | NMII-sel | 4.8 µM | >99% | 98.7% | >99%
O=C1c2cc(Cl)ccc2N=C2N(c3ccc4sccc4c3)CC[C@@]12O [BPN-0026546] | – | NMII-sel | 22 µM | 81.2% | 12.5% | 93.5%
